Data taken from patent US5045302A, “Ligands and cationic complexes thereof with technetium-99m” (priority 1988, dated 1991).

Test: Rat biodistribution of Tc-99m complexes

SMILES | Blood (2 min p.i.) [% Injected dose/organ] | Heart (2 min p.i.) [% Injected dose/organ] | Heart/Blood Counts/Gram Ratio (2 min p.i.) | Heart/Liver Counts/Gram Ratio (2 min p.i.) | Liver (2 min p.i.) [% Injected dose/organ] | Blood (60 min p.i.) [% Injected dose/organ] | Heart (60 min p.i.) [% Injected dose/organ] | Heart/Blood Counts/Gram Ratio (60 min p.i.) | Heart/Liver Counts/Gram Ratio (60 min p.i.) | Liver (60 min p.i.) [% Injected dose/organ]
COC(C)CP(CCP(CC(C)OC)CC(C)OC)CC(C)OC (centres unmarked) [Compound 11] | 9.45 | 0.31 | 1.27 | 0.57 | 20.3 | 1.93 | 0.62 | 5.70 | 0.75 | 12.0
C1CC(CP(CCP(CC2CCOCC2)CC2CCOCC2)CC2CCOCC2)CCO1 [Compound 25] | 18.10 | 0.40 | 0.34 | 0.94 | 5.74 | 1.51 | 0.04 | 0.41 | 0.34 | 1.60
CC1(C)OCC(CP(CCP(CC2COC(C)(C)O2)CC2COC(C)(C)O2)CC2COC(C)(C)O2)O1 (centres unmarked) [Compound 22] | 10.4 | 0.99 | 1.20 | 0.79 | 15.7 | 1.23 | 1.00 | 12.3 | 3.99 | 3.41

Results, then the molecule that gave them:

Blood (2 min p.i.) [% Injected dose/organ] | Heart (2 min p.i.) [% Injected dose/organ] | Heart/Blood Counts/Gram Ratio (2 min p.i.) | Heart/Liver Counts/Gram Ratio (2 min p.i.) | Liver (2 min p.i.) [% Injected dose/organ] | Blood (60 min p.i.) [% Injected dose/organ] | Heart (60 min p.i.) [% Injected dose/organ] | Heart/Blood Counts/Gram Ratio (60 min p.i.) | Heart/Liver Counts/Gram Ratio (60 min p.i.) | Liver (60 min p.i.) [% Injected dose/organ] | SMILES
17.9 | 0.50 | 0.43 | 0.16 | 39.4 | 3.20 | 0.29 | 1.3 | 0.29 | 11.4 | CCOCP(CCCP(COCC)COCC)COCC [Compound 33]
9.0 | 0.82 | 1.62 | 1.28 | 11.0 | 0.73 | 0.69 | 15.5 | 3.93 | 2.94 | CCOCCP(CCOC)CCP(CCOC)CCOCC (centres unmarked) [Compound 28]
19.5 | 0.41 | 0.34 | 0.22 | 29.7 | 4.56 | 0.16 | 0.52 | 0.21 | 10.9 | CCOCCP(CCCP(CCOCC)CCOCC)CCOCC [Compound 34]
10.5 | 0.59 | 0.88 | 0.28 | 28.2 | 1.44 | 0.32 | 3.8 | 0.46 | 10.7 | C1COC(CP(CCCP(CC2CCCO2)CC2CCCO2)CC2CCCO2)C1 (centres unmarked) [Compound 35]
9.52 | 0.73 | 1.14 | 1.28 | 7.69 | 0.34 | 0.70 | 27.4 | 4.24 | 1.89 | CCOCCCP(CCOC)CCP(CCCOCC)CCOC (centres unmarked) [Compound 30]
